In paper doi:10.1101/177311v3 (biorxiv, 2018):

Biological target: T1, mycL-Hmg2-GFP (1myc-Hmg2-GFP; Hmg2 transmembrane region) (Saccharomyces cerevisiae, UniProt P12684)
T1 sequence (P12684 1-535 limits assumed): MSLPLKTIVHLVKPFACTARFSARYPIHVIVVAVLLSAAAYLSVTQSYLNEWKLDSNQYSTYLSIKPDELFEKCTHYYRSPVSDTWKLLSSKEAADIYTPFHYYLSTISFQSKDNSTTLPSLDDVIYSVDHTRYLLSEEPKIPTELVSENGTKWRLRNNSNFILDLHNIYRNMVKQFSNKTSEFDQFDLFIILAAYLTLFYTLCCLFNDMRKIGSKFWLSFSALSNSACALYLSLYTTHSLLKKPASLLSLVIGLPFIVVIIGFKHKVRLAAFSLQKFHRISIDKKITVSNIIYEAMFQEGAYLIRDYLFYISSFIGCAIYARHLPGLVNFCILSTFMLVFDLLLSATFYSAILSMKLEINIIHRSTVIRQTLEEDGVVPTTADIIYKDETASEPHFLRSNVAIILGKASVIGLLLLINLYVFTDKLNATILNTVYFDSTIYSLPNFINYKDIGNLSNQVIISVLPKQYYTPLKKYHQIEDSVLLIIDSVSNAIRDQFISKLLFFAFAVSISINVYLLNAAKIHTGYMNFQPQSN
Assay: limited trypsin proteolysis of microsomes, anti-myc immunoblot
Format: biochemical

Compound: CC(C)=CCC/C(C)=C/CC/C(C)=C/CC/C(C)=C/COP(=O)(O)OP(=O)(O)O [GGPP, geranylgeranyl pyrophosphate]
- EC50: < 200 nM
